Laboratory results from publication PMC12030000 (Pharmaceuticals, 2025).

Test system: ALS patient-derived iMNs (C9orf72 pathology)
Assay: iPSC-derived motor neuron (iMN) survival assay with neurotrophic factor withdrawal
Assay type: cell-based, human
Details: for Median survival time of treated ALS iMNs: ALS patient-derived iMNs, 14-day period; for Surviving iMNs (cell count): 300 tracked ALS iMNs on day 0
Procedure: In this study, iPSC-derived iMNs were generated from PALS (C9orf72 pathology) and from healthy donors' PBMCs. Neuronal survival rate was compared between PrimeC's components, their combination, and the relevant DMSO vehicle reference as described in Figure 2A-C. […] form between days 13 and 16 after transduction of iMN factors. The iMN survival assay was initiated on day 17. Starting at Day 17, longitudinal tracking of iMNs was performed using Molecular Devices ImageExpress once every other day for 16 days. Tracking of neuronal survival was performed using ImageJ version 1.53t. Neurons were scored as dead when their soma was no longer detectable by RFP fluorescence. iMN survival experiments included neurotrophic factor withdrawal in order to exacerbate the survival difference between control and PALS' iMNs. Neurotrophic factor withdrawal of FGF-2, BDNF, GDNF, and CNTF from the culture medium was performed on day 17. For treatment with drugs, cultures were treated with DMSO or a drug after neurotrophic factor withdrawal (starting at day 17). Treatment with fresh media containing vehicle or drugs occurred every 3 days for 16 days. […] Control cell lines of non-neurological subjects (i.e., neurologically healthy controls) were used in the comparisons. […] A hazard ratio was calculated for each of the comparisons as the likelihood of neuron death when treated with the indicated compound divided by the likelihood of neuron death when treated with another indicated compound. The lower the ratio, the […] it is for a cell to die when treated with the second compound compared to being treated with the first compound in each comparison above, and vice versa. Analysis utilized GraphPad Prism version 10.0.2 GraphPad. […] Kaplan-Meier plots were generated using iMNs obtained from each treatment condition in replicates of three. Confirmation of iMN survival times was analyzed by manual longitudinal tracking.

[1] = day 16, day 16 excluded from survival analyses

SMILES | Median survival time of treated ALS iMNs [days] | Surviving iMNs (cell count) (day 2) | Surviving iMNs (cell count) (day 4) | Surviving iMNs (cell count) (day 6) | Surviving iMNs (cell count) (day 8) | Surviving iMNs (cell count) (day 10) | Surviving iMNs (cell count) (day 12) | Surviving iMNs (cell count) (day 14) | Surviving iMNs (cell count) [1]
Cc1ccc(-c2cc(C(F)(F)F)nn2-c2ccc(S(N)(=O)=O)cc2)cc1 [Celecoxib, celecoxib] | 8 | 300 | 272 | 227 | 190 | 139 | 104 | 79 | 55
O=C(O)c1cn(C2CC2)c2cc(N3CCNCC3)c(F)cc2c1=O [Ciprofloxacin, ciprofloxacin] | 8 | 300 | 262 | 238 | 210 | 177 | 146 | 118 | 74
